Source: ChEMBL document CHEMBL1201862, “PubChem BioAssay data set” (2004)
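Test compounds were applied to cells in 96-well plates for 48 hours at 5 doses. Abbreviation: GI50, concentration required for 50% inhibition of growth.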 The source made the active and inactive calls. Rule as the data show it: active = GI50 up to about 1.1 µM and inactive = higher.

Tests used:
Test in all cases: inhibition of tumour cell growth, NCI panel, 48 h
[1] = system: U-251
[2] = system: MDA-MB-435
[3] = system: SF-539
[4] = system: NCI-H460
[5] = system: HT-29
[6] = system: DU-145
[7] = system: EKVX
[8] = system: NCI-H23
[9] = system: A549
[10] = system: UO-31
[11] = system: 786-0
[12] = system: RPMI-8226
[13] = system: RXF 393
[14] = system: HOP-62
[15] = system: SN12C
[16] = system: Hs-578T
[17] = system: KM12
[18] = system: NCI-H522
[19] = system: HOP-92
[20] = system: SW-620
[21] = system: SF-295
[22] = system: SK-MEL-2
[23] = system: LOX IMVI
[24] = system: M14
[25] = system: A498
[26] = system: SF-268
[27] = system: TK-10
[28] = system: UACC-62
[29] = system: CCRF-CEM
[30] = system: SK-OV-3
[31] = system: HCT-116
[32] = system: ACHN
[33] = system: SNB-19
[34] = system: NCI/ADR-RES
[35] = system: IGROV-1
[36] = system: K562
[37] = system: Malme-3M
[38] = system: COLO 205
[39] = system: NCI-H226
[40] = system: MCF7
[41] = system: BT-549
[42] = system: HCT-15
[43] = system: MOLT-4
[44] = system: SK-MEL-5
[45] = system: OVCAR-3
[46] = system: OVCAR-8
[47] = system: SK-MEL-28
[48] = system: PC-3
[49] = system: OVCAR-5
[50] = system: SNB-75
[51] = system: MDA-MB-231
[52] = system: T47D
[53] = system: CAKI-1
[54] = system: HCC 2998
[55] = system: OVCAR-4
[56] = system: HL-60
[57] = system: UACC-257

Measured: GI50

O=Nn1c2ccccc2c2ccccc21
35.1 µM: [42]
inactive: [1] 92.9 µM | [2] 77.4 µM | [3] > 100 µM | [4] 9.86 µM | [5] 50.2 µM | [6] > 100 µM | [7] 22.4 µM | [8] 58.2 µM | [9] 17.5 µM | [10] 34.4 µM | [11] 95.1 µM | [12] 70.1 µM | [13] 37.7 µM | [14] > 100 µM | [15] > 100 µM | [16] 46.2 µM | [17] 34.3 µM | [18] 38.6 µM | [19] 66.2 µM | [20] 66.8 µM | [21] 42.9 µM | [22] 61.7 µM | [23] 48.1 µM | [24] 74.1 µM | [25] 23.8 µM | [26] > 100 µM | [27] 70.5 µM | [28] 45.7 µM | [29] 45.7 µM | [30] 84.5 µM | [31] 85.9 µM | [32] 56.2 µM | [33] 88.9 µM | [34] 52.8 µM | [35] 85.3 µM | [36] 58.9 µM | [37] 93.3 µM | [38] 14.1 µM | [39] 55.5 µM | [40] 45 µM | [41] 73.1 µM | [43] 55.1 µM | [44] 63.1 µM | [45] 71.9 µM | [46] > 100 µM | [47] > 100 µM | [48] 42.8 µM | [49] > 100 µM | [50] 75 µM | [51] 65.2 µM | [52] 66.5 µM | [53] 44.4 µM | [54] 17.1 µM | [55] 90.8 µM | [56] 59.3 µM | [57] 61.2 µM
